Results on four compounds are retold here after ChEMBL document CHEMBL1201862, “PubChem BioAssay data set” (2004).

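Cultured in 96-well plates, cells were exposed to test compound for 48 hours across five concentrations. GI50 = concentration required for 50% inhibition of growth.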 Calls of active or inactive are those of the source. Rule as the data show it: active = GI50 up to about 1.1 µM and inactive = higher.

Some test systems named below: SF-539; UACC-62; HCC 2998; MDA-MB-231; BT-549; OVCAR-5; OVCAR-4; M14; MDA-N; RXF 393; NCI-H460; LOX IMVI; A498; HCT-116; NCI-H23; OVCAR-3; UACC-257; SW-620; SNB-75.
Common to all, as to test: NCI-60 cell line screen, 48 h

For `c1ccc(CSCCc2ccncc2)cc1`, the GI50 in the experiment with SF-539 was > 100 µM (inactive); in the experiment with UACC-62, > 100 µM (inactive); in the experiment with HCC 2998 it was > 100 µM (inactive); in the experiment on MDA-MB-231, 15.8 µM (inactive); in the experiment on BT-549 it was > 100 µM (inactive); in the experiment with OVCAR-5, > 100 µM (inactive). The GI50 in the experiment with OVCAR-4 was 44 µM (inactive); in the experiment with M14 it was > 100 µM (inactive); in the experiment on MDA-N it was > 100 µM (inactive); in the experiment with RXF 393, > 100 µM (inactive); with NCI-H460, > 100 µM (inactive); in the experiment on LOX IMVI, > 100 µM (inactive). The GI50 is > 100 µM (inactive) in the experiment on A498; > 100 µM (inactive) in the experiment on HCT-116; > 100 µM (inactive) in the experiment on NCI-H23; > 100 µM (inactive) in the experiment on OVCAR-3; 53 µM (inactive) in the experiment on UACC-257; > 100 µM (inactive) in the experiment with SW-620.

As to `CC[N+]1(C)CCC(O)(c2ccc(C)cc2)C(C(=O)c2ccc(C)cc2)C1` (centres undefined), the GI50 was 66.8 µM (inactive) with SF-539; > 100 µM (inactive) in the experiment on UACC-62; > 100 µM (inactive) with HCC 2998; 26.7 µM (inactive) in the experiment with MDA-MB-231; > 100 µM (inactive) in the experiment with BT-549; 31 µM (inactive) in the experiment on OVCAR-5. The GI50 in the experiment with OVCAR-4 was 34.4 µM (inactive); in the experiment with M14, 44.8 µM (inactive); with MDA-N it was > 100 µM (inactive); in the experiment on RXF 393 it was 35.4 µM (inactive); with NCI-H460, > 100 µM (inactive); in the experiment on A498 it was > 100 µM (inactive). Also, the GI50 in the experiment on HCT-116 is 51.8 µM (inactive); with NCI-H23, > 100 µM (inactive); in the experiment on OVCAR-3, 21.7 µM (inactive); in the experiment with UACC-257 it was 62.5 µM (inactive); in the experiment with SW-620, 20.6 µM (inactive).

As for `CSC1=C(C(=O)Nc2ccccc2)C(N)=NC1=O`, the GI50 was > 100 µM (inactive) in the experiment on SNB-75; > 100 µM (inactive) in the experiment on SF-539; 62.8 µM (inactive) in the experiment on UACC-62; > 100 µM (inactive) in the experiment with HCC 2998; > 100 µM (inactive) in the experiment with MDA-MB-231; > 100 µM (inactive) in the experiment with BT-549. The GI50 with OVCAR-4 was > 100 µM (inactive); in the experiment on MDA-N it was > 100 µM (inactive); in the experiment with RXF 393, 79.3 µM (inactive); in the experiment with NCI-H460 it was > 100 µM (inactive); with LOX IMVI it was > 100 µM (inactive); with A498 it was 56.2 µM (inactive). Further, the GI50 in the experiment on HCT-116, in the experiment on NCI-H23, in the experiment on UACC-257 and with SW-620 was > 100 µM (inactive) in each case.

For the compound `CCOC(=O)Oc1ccc2c(c1)c(=O)c1c(NCCCN(CC)CC)ccc3nnn2c31`, the GI50 with SF-539 was 5.62 µM (inactive); with UACC-62 it was 15.3 µM (inactive); with HCC 2998 it was 1.43 µM (inactive); in the experiment with MDA-MB-231, 1.12 µM (inactive); with BT-549, 17.5 µM (inactive); with OVCAR-5 it was 16.6 µM (inactive). Also, the GI50 with OVCAR-4 is 0.33 µM (active); in the experiment with M14, 12.3 µM (inactive); with MDA-N, 1.19 µM (inactive); in the experiment on RXF 393, 1.81 µM (inactive); in the experiment on NCI-H460, 0.337 µM (active); with LOX IMVI it was 2.52 µM (inactive). The GI50 in the experiment with A498 is 11.1 µM (inactive); in the experiment with HCT-116 it was 1.37 µM (inactive); in the experiment with NCI-H23, 13.3 µM (inactive); in the experiment with OVCAR-3, 5.5 µM (inactive); in the experiment with UACC-257, 15.4 µM (inactive); in the experiment on SW-620, 2.24 µM (inactive).
